This is an account of results in patent publication US10576050B2, “Methods and compositions for treatment of cancer” (ONCONOVA THERAPEUTICS, INC., priority 2012, dated 2020).

The data set can be described thus: Phase 1 oral bioavailability study of Rigosertib soft gelatin capsule in MDS patients, fasted and fed, vs IV. The data set is classed as in vivo, human. The conditions noted are these: for AUC / Cmax / Tmax / half-life / bioavailability: human, plasma, MDS patients. Here is the method: A Phase 1 study was conducted to assess oral bioavailability of a novel oral ON 01910.Na (Rigosertib) soft gelatin capsule formulation of Example 1 in MDS patients under fasted and fed conditions. This was a single-dose, three-treatment, three-period sequential design for studying the effects of food on the bioavailability of an immediate-release soft gelatin capsule formulation. The following dosing groups were tested in 12 patients: IV Dose 800 mg over 24 hours and oral dose 560 mg (2×280 mg capsules) under fasting and fed conditions. Plasma samples were collected pre-dose, over 32 hours (IV dose) or 8 hours (oral dose) after dose initiation. Rigosertib plasma levels were analyzed by a validated LC/MS/MS method. Pharmacokinetic parameters were estimated by non-compartmental analysis (WinNonlin®).

Setting [1] is: iv, 800 mg, 800 mg IV (24 hr infusion).
The mark [2] stands for this setting: po, 560 mg, 560 mg Oral (Fasting).

As a reminder, the AUC is concentration integrated over time. Read a low AUC as less exposure. As a reminder, the Cmax is the highest concentration seen after dosing. Usually Tmax stands for the time from dosing to the highest level. For orientation: half-life means the time in which the quantity being followed falls by half. Low readings indicate rapid decline, high ones slow decline. In general, bioavailability refers to dose-corrected exposure relative to a reference, in per cent. Low values mean little systemic uptake, high ones much systemic uptake. In the case of `COc1cc(OC)c(/C=C/S(=O)(=O)Cc2ccc(OC)c(NCC(=O)[O-])c2)c(OC)c1.[Na+]` [Rigosertib, sodium (E)-2-{2-methoxy-5-[(2′,4′,6′-trimethoxystyrylsulfonyl)methyl]phenylamino}acetate], for the setting “560 mg oral, fed vs fasting”, the “decrease of AUC after a meal as compared to fasting conditions” value stood at 61% and the “decrease of Cmax after a meal as compared to fasting conditions” value was 77%. Under setting [1], the exposure (AUC) was 52700 ± 19200 ng·h/mL, the peak level (Cmax) was 3140 ± 1130 ng/mL, the Tmax was found to be 2.91 ± 1.3 h and the half-life was 3.25 ± 0.97 h. For the same compound, under setting [2], the AUC was 6890 ± 3980 ng·h/mL, the Cmax amounted to 2420 ± 1260 ng/mL, the Tmax was determined as 1 ± 0.45 h and the bioavailability came to 34.9 ± 17.6%. This compound also had a half-life under setting [2] of 2.79 ± 1.23 h. Further, where the note is “po, 560 mg, 560 mg Oral (Fed)”, the AUC is 2710 ± 1510 ng·h/mL, the peak level (Cmax) was 560 ± 310 ng/mL, the Tmax worked out at 2.82 ± 1.15 h and the bioavailability turned out to be 13.8 ± 6.04%. For the setting “po, 560 mg, 560 mg Oral (Fed)”, this compound gave a half-life of 2.61 ± 0.93 h.
